What was measured:
[1] = biological target: T1, JAK3 enzyme (Homo sapiens, UniProt P52333); experiment: JAK Caliper Enzyme Assay at 1 mM ATP; format: biochemical
T1 sequence (P52333 1-1124): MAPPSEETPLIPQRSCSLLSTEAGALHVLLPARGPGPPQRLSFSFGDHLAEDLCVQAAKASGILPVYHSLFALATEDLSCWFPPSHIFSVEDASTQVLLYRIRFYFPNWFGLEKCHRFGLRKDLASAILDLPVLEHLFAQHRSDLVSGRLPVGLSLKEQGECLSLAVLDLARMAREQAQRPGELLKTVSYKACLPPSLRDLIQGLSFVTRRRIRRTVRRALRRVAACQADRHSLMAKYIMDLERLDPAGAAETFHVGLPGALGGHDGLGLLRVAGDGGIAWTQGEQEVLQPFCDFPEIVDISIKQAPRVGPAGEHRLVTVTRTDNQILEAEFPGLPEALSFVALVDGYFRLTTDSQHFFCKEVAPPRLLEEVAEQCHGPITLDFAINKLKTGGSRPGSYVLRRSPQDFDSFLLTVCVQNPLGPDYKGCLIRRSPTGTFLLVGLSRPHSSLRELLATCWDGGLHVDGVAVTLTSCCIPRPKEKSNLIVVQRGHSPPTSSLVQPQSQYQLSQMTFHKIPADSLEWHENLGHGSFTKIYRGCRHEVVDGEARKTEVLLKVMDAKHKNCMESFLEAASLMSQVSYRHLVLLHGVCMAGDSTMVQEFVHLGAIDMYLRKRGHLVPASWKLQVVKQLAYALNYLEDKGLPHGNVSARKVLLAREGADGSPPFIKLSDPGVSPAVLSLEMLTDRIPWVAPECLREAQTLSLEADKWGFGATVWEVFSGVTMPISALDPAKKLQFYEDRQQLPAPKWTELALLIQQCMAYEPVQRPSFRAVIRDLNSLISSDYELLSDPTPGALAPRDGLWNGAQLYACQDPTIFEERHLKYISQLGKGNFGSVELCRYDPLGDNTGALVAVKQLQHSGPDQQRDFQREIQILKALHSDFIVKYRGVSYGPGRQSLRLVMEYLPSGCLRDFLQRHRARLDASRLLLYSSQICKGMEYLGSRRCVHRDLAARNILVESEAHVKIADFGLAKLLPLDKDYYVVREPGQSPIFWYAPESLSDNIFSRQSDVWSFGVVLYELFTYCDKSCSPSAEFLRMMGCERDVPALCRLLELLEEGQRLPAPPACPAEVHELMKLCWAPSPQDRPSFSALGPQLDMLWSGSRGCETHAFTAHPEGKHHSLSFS
Summary of the method: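 Read-out: microfluidic mobility-shift separation quantifying substrate peptide versus phosphopeptide. Compounds were tested as 11-point half-log dilutions, top 600 μM in DMSO before transfer. Enzyme level and reaction time were tuned for each prep so conversion stayed at 20%-30%.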

[2] = Stability of JAK3 Covalent Inhibitors in Human Whole Blood; format: in vitro ADME; conditions: both sexes, 1 μM test compound, 37° C., 180 min incubation, read-out: Human blood stability t1/2
Summary of the method: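 Parent remaining versus time was derived from LC-MS/MS peak area ratios to internal standard after acetonitrile quench. Incubations ran for 180 min at 37° C, in duplicate, with 1 μM test compound in pooled K2-EDTA human blood (two healthy donors).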

[3] = tested on: IL-15 induced STAT5 phosphorylation in human whole blood lymphocytes; experiment: HWB IL-15 Induced STAT5 Phosphorylation Assay; format: cell-based; conditions: Lymphocyte, IL-15 final 50 ng/ml, read-out: HWB_IL15 pSTAT5 IC50
Summary of the method: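 Heparinised human whole blood preincubated with compound (0.2% DMSO final) 45 min at 37° C, then stimulated with human IL-15 (50 ng/ml final) for 15 min. After lyse/fix and Perm Buffer III permeabilisation, stained overnight at 4° C with AlexaFluor647 anti-phospho-STAT5; read by flow cytometry gated on total lymphocytes.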

SMILES	IC50 [1] [µM]	half-life at 1 μM [2] [h]	IC50 [3] [µM]
C=CC(=O)N1CC[C@H](Nc2cnc3[nH]cc(C(=O)NCC(F)(F)F)c3n2)[C@H](OC)C1 [Example 293, 2-{[(3R,4S)-1-acryloyl-3-methoxypiperidin-4-yl]amino}-N-(2,2,2-trifluoroethyl)-5H-pyrrolo[2,3-b]pyrazine-7-carboxamide]	0.051	3.4	0.818
C=CC(=O)N1CC[C@@H](Nc2cnc3[nH]cc(C(=O)NCC)c3n2)C[C@@H]1C (single isomer, unassigned) [Example 42]	0.05	4.68	1.06
C=CC(=O)N1CCC(Nc2cnc3[nH]cc(C(=O)NCc4ccc(F)c(C#N)c4)c3n2)CC1 [Example 189, 2-[(1-acryloylpiperidin-4-yl)amino]-N-(3-cyano-4-fluorobenzyl)-5H-pyrrolo[2,3-b]pyrazine-7-carboxamide]	0.006	> 6	1.14
C=CC(=O)N1C[C@H](CN2CC[C@H](C#N)C2)C[C@H](Nc2ncnc3[nH]ccc23)C1 [Example 108, (S)-1-(((3S,5S)-5-((7H-pyrrolo[2,3-d]pyrimidin-4-yl)amino)-1-acryloylpiperidin-3-yl)methyl)pyrrolidine-3-carbonitrile]	0.136	2.23	3.48

Further lines, results first:

IC50 [1] [µM]	half-life at 1 μM [2] [h]	IC50 [3] [µM]	SMILES
0.018	4.23	0.378	C=CC(=O)N1CCC(Oc2cnc3[nH]cc(C(=O)N[C@@H](C)COC)c3n2)CC1 [Example 228, 2-[(1-acryloylpiperidin-4-yl)oxy]-N-[(2S)-1-methoxypropan-2-yl]-5H-pyrrolo[2,3-b]pyrazine-7-carboxamide]
0.051	5.08	1.94	C=CC(=O)N1CC[C@@H](Nc2cnc3[nH]cc(C(=O)NCC)c3n2)[C@@H](C)C1 (racemic) [Example 37, Cis-racemic-2-{[(3S,4R)-1-acryloyl-3-methylpiperidin-4-yl]amino}-N-ethyl-5H-pyrrolo[2,3-b]pyrazine-7-carboxamide]
0.025	4.05	0.889	C=CC(=O)N1CCC(Oc2cnc3[nH]cc(C(=O)NC4CCCC4(F)F)c3n2)CC1 (stereo not drawn) [Example 219, 2-[(1-acryloylpiperidin-4-yl)oxy]-N-(2,2-difluorocyclopentyl)-5H-pyrrolo[2,3-b)pyrazine-7-carboxamide]
0.025	3.93	0.772	C=CC(=O)N1CCC(Oc2cnc3[nH]cc(C(=O)N[C@H]4CC[C@@H](F)C4)c3n2)CC1 [Example 225, 2-[(1-acryloylpiperidin-4-yl)oxy]-N-[(1S,3R)-3-fluorocyclopentyl]-5H-pyrrolo[2,3-b]pyrazine-7-carboxamide]

From US10703756B2, “Pyrrolo[2,3-D]pyrimidinyl, pyrrolo[2,3-B]pyrazinyl, pyrrolo[2,3-B]pyridinyl acrylamides and epoxides thereof” (Pfizer Inc., priority 2015, dated 2020)
